Experimental data taken from patent EP4361137A1, “PRUNE1 INHIBITORS AND THERAPEUTIC USE THEREOF” (CEINGE Biotecnologie Avanzate Franco Salvatore s.c. a r.l., priority 2022, dated 2024).

Experiments:
[1] = tested on: MATH1-Prune1/TP53-/- cells; test: Real-time cell proliferation assay (cell index, xCELLigence); assay type: cell-based, murine; conditions: impedance every 2 min over 24 h
Experimental: Primary murine TNBC cells from tumors generated by MMTV-Prune1/Wnt1 mice [Ferrucci et al., 2021] and Primary murine Medulloblastoma Group 3 cells from tumors generated MATH-Prune1/TP53-/- mice were obtained (2 months from tumor onset).
Cellular proliferation rates were determined with the xCELLigence system (Roche). D425-MED, MATH-Prune1/TP53-/- and MMTV-Prune1/Wnt1 cells (8 × 10^3) were treated with increasing concentrations of LEO-AA7.5(S)T, harvested, and then added to a single well of an xCELLigence E-plate 16. The proliferation rates were determined at 2-min intervals by measuring the impedance changes across the electrodes at the bottoms of the wells. These cell index values were calculated by the xCELLigence RTCA software. with vehicle-treated cells were the negative control. Impedance was measured every 2 min over 24 hours. The IC50 values were calculated through nonlinear regression analysis performed with Graph Pad Prism 9 ([inhibitor] vs. response (three parameters). Data are means ± SD of three independent experiments.

[2] = tested on: human and murine Prune1; test: Immunoblotting of MATH1-Prune1/TP53-/- cells; assay type: cell-based; conditions: 10 µM, 24 hours
Experimental: Cells for immunoblotting analysis were washed in cold PBS and lysed in cell lysis buffer [20 mM sodium phosphate (pH 7.4), 150 mM NaCl, 10% (v/v) glycerol, 1% (w/v) sodium deoxycholate, 1% (v/v) Triton X-100] supplemented with protease inhibitors (Roche). The resulting cell lysates were cleared by centrifugation at 16,200g for 10 min at room temperature, and the supernatants were re- moved and assayed for protein concentrations with the Protein Assay Dye Reagent (Bio-Rad). The cell lysates (30 µg) were resolved by SDS-polyacrylamide gel electrophoresis (SDS-PAGE) gels of different percentages, which depended on the molecular weights of the proteins of interest. The proteins were then electrophoretically transferred to polyvinylidene difluoride (PVDF) membranes (Millipore). After 1 hour in blocking solution with 5% (w/v) dry milk fat in PBS or 5% (w/v) BSA (Sigma-Aldrich) in tris-buffered saline [both of which contained 0.02% (v/v) Tween 20] (TBS-Tween), the PVDF mem- branes were incubated with the required primary antibody overnight at 4°C: anti-PRUNE1 (1:250; Ferrucci et al., 2018), or anti- β-actin (1:10,000; A5441, Sigma-Aldrich). […] The peak areas of the bands were measured on the densitometry plots, and the relative proportions (percentages) were calculated. […]

[3] = tested on: CCL2; test: ELISA of CCL2 in sera of implanted mice; assay type: in vivo, FVB WT mice; conditions: 6 mg/kg/day intraperitoneally for seven days; n.5 per group
Experimental: ELISA assay ([…]) was performed by following the manufacturer instruction, to measure the levels of CCL2 cytokine in the sera from immunocompetent syngeneic mice orthotopically implanted with MATH1-Prune1/ TP53-/- cells and treated intraperitoneally for seven days with LEO-AA7.5(S)T (n.5) at 6 mg/kg/day, or with water (n.5) as the vehicle control group.

[4] = tested on: CD4+/ CD8+ T cells; test: Tconv to Treg conversion of T cells grown in conditioned media (immunofluorescence CD4/FOXP3); assay type: cell-based, FVB mice
Experimental: The isolation of untouched mouse CD4+/ CD8+ T cells from single-cell suspensions from spleen of n.2 naive FVB mice were performed by using Pan T Cell Isolation Kit II, mouse (130-095-130, Miltenyi biotec), according to the manufacturer instruction. Once isolated, T cells were grown for 48 hours in the conditioned media previously collected for 24 hours from pooled vehicle- or 10 µM LEO-AA7.5(S)T-treated MATH1-Prune1/TP53-/- cells.
T cells grown for 48 hours in conditioned media collected from vehicle- or LEO-AA7.5(S)T-treated MATH1-Prune1/TP53-/- cells were fixed in 4% paraformaldehyde in phosphate-buffered saline (PBS) for 30 min, washed three times with PBS, and permeabilized for 15 min with 0.1% Triton X-100 (215680010; Acros Organics) diluted in PBS. The cells were then blocked with 3% bovine serum albumin (A9418; Sigma) in PBS for 1 h at room temperature. The samples were incubated with the appropriate primary antibodies overnight at 4 °C: anti-FOXP3 (1:2000; ab54501; Abcam); anti-CD4 (1:100; sc-19641, SantaCruz). After washing with PBS, the samples were incubated with the secondary antibody at room temperature for 1 h, as anti-mouse Alexa Fluor 488 (1:200; ab 150113; Abcam) or anti-rabbit Alexa Fluor 546 (1:200; Abcam). DNA was stained with DAPI (1:1000; #62254, Thermo Fisher). The slides were washed and mounted with cover slips with 50% glycerol (G5150; Sigma-Aldrich). […]

`COc1ccc(CNc2ncnc(N3CCC[C@H](CO)C3)n2)cc1.Cl` [LEO-AA7.5(S)T, (S)-(1-(4-((4-methoxybenzyl)amino)-1,3,5-triazin-2-yl)piperidin-3-yl)methanol HCl salt] was tested, and the “half maximal inhibitory concentration (IC50) for the inhibition of cell proliferation index” value [1] was 31.1 µM, the “human and murine Prune1 levels (immunoblotting)” value [2] was “reduced human and murine Prune1 levels” and the “nuclear phosphorylated SMAD2 and OTX2 (immunoblotting)” value [2] was “inhibition”. The “sera circulating CCL2” value [3] was “decreased levels”, the “percentage of Tregs (CD4+FOXP3+) among T cells” value ([4]; T cells 48 hours in conditioned media of cells treated with 10 µM for 24 hours, vs vehicle conditioned media) was “decrease” and the “inhibition of the conversion from Tconv to Treg cells, compared with 100 µM AA7.1” value ([4]; ex vivo, 10 µM vs 100 µM AA7.1) was “comparable”.
